The values that follow come from patent US12454494B2, “Process for the reduction of gas emission from farm manure” (Alzchem Trostberg GmbH, priority 2018, dated 2025).

Each structure is given as a SMILES string.

The test system of this experiment is cattle liquid manure. Briefly: Example 5: methane and CO2 emissions from cattle liquid manure during 170 days storage with Compositions 1, 2, 4, 5, 6. To be noted: cf. Example 5. The protocol: After stirring, the pH value and conductivity in the mixture were measured, and then the wide-neck container was immediately sealed tightly. An opening was drilled in the lid of the wide-neck container, in which a sealed gas storage bag (nominal volume 5.6 liters) was connected and in which the released gas volume was collected. This structure prevented atmospheric oxygen from entering the wide-neck container. This prevented CO2 from the air from falsifying the measurement results. The mixture was stored for exactly 170 days without stirring or agitation at a temperature of 23±1° C. and at an air pressure of 960 to 980 hPa and at 493 m above standard sea level (NHN). At regular intervals, the filled gas storage bag was exchanged, the stored gas volume was determined volumetrically, and the gas composition was analyzed by gas chromatography. […] After stirring, the pH value and conductivity in the mixture were measured, and then the wide-neck container was immediately sealed tightly. […] At regular intervals, the filled gas storage bag was exchanged, the stored gas volume was determined volumetrically, and the gas composition was analyzed by gas chromatography. […] After stirring, the pH value and conductivity in the mixture were measured, and then the wide-neck container was immediately sealed tightly. […]

With `O=C([O-])[O-].[Ca+2]` [calcium carbonate], the “Effect alone on the emission of methane and carbon dioxide” value was “no impact”.
In the case of `[Ca+2].[OH-].[OH-]` [calcium hydroxide], the “Effect alone on the emission of methane and carbon dioxide” value was “additional effect”.
